Results as given in patent publication US9440914B2, “Method for treating glioblastomas and other tumors” (THE FEINSTEIN INSTITUTE FOR MEDICAL RESEARCH, priority 2013, dated 2016).
pIC50: −log10 of the molar value.

Tests used:
ES cells (SK-NEP1) = assay: proliferation assay of ES cells co-cultured with polarized macrophages; assay type: cell-based, human; settings: co-culture with polarized macrophages
Experimental: (§1) In vivo, human ES cells (SK-NEP1) were surgically implanted into the left kidney of athymic mice. Mice were treated for 7 weeks with CNI-1493 or vehicle. Lung parenchyma was assessed for metastases utilizing both H&E and immunohistochemistry for the ES-specific CD99 and endothelial-specific CD31 markers. In vitro, primary macrophages isolated from human blood were polarized to M1 or M2 phenotypes by exposure to GM-CSF or M-CSF and activated with IFN-γ and LPS or IL-4. Cells were co-cultured with polarized macrophages and underwent proliferation and invasion assays in the presence or absence of CNI-1493.

[1] = system: GL261 cells with microglia; assay: concentration dependence on microglia-stimulated invasion of glioma cells (24-well transwell); assay type: cell-based; settings: GL261 3×10^5, microglia 1.5×10^5, 48 h
Experimental: FIG. 11. […] GL261 cells (3×10^5) and microglia (1.5×10^5) were embedded in 50 μl of basement membrane extract in the presence of the indicated concentrations of semapimod (SMP) and CP1213, layered in a 24-well transwell and incubated for 48 h. The number of invading GL261 cells was determined. Data shown represent the average+/−SD of between 2 and 5 independent experiments, each performed in duplicate.
The concentration dependence of the inhibitory effect of semapimod or CP1213 was investigated on microglia-stimulated invasion of glioma cells. GL261 cells (3×10^5) and microglia (1.5×10^5) were embedded in 50 μl of basement membrane extract in the presence of the indicated concentrations of semapimod (SMP) and CP1213, layered in a 24-well transwell and incubated for 48 h. The number of invading GL261 cells was determined. Data are shown in FIG. 11 and represent the average+/−SD of between 2 and 5 independent experiments, each performed in duplicate. The data support a method of treating a glioma, by inhibiting microglia-stimulated invasion processes with guanylhydrazones.

SK-NEP1 human ES cells = assay: metastatic Ewing's Sarcoma mouse model (SK-NEP1 implanted into kidney); assay type: in vivo, athymic mice
Experimental: FIG. 8A-8B. CNI-1493 decreases primary tumor size and metastatic burden in a metastatic Ewing's Sarcoma mouse model. 10^6 SK-ENP1 cells were implanted into the kidneys of nude mice and intraperitoneal treatment with CNI-1493 (5 mg/kg/day) or vehicle was initiated one week later. After six weeks of treatment, mice were sacrificed and assessed for primary and metastatic tumor burden. […] Metastatic tumor burden was evaluated with hematoxylin and eosin stained tissue sections by microscopy and calculating surface area per tissue section per mouse using ImageJ software (B).
as §1

microglia = assay: glioblastoma cell-stimulated microglia invasion (transwell); assay type: cell-based, murine; settings: GL261 in bottom well, microglia in BME, 48 h; read-out: IC50 for inhibition of GL261-stimulated microglia invasion
Experimental: To measure the invasion of microglia toward glioblastoma cells in vitro, a variant of the glioblastoma cell invasion assay was used. First, 15×10^4 G1261 cells were plated in MSFM medium overnight and subsequently were placed in serum free medium. Subsequently, 5×10^4 microglia cells were embedded in 50 μL, of 10 mg/mL BME with or without 200 nM semapimod, placed in a 8 μm transwell (previously coated with 1 μg/mL fibronectin on the bottom side of the 8 μm filter to maintain adhesion of the cells that invaded through the filter) and allowed to polymerize for 30 min at 37° C. The transwell chambers were then placed above the previously plated GL261. After 48 h of incubation, the chambers were fixed in 3.7% formaldehyde in PBS.
The cells were stained with 0.2% crystal violet in 2% ethanol. The remaining BME was carefully removed and the inserts were allowed to dry. Cells attached to the bottom of the filter were imaged as for the invasion assay and the total number of invaded microglia was determined.
Semapimod inhibits glioblastoma-induced microglia invasion in vitro: Microglia extensively infiltrate glial tumors (5-7). […] This stimulatory effect is abolished by semapimod, with an IC50 of approximately 60 nM.

[2] = system: GL261 murine glioblastoma cells co-cultured with microglia; assay: 3-dimensional microglia-glioblastoma co-culture transwell invasion assay (microglia-stimulated GL261 invasion); assay type: cell-based; settings: 3:1 glioblastoma cells to microglia, BME, no serum, 48 h; read-out: IC50 for interference with microglia-stimulated GL261 invasion
Experimental: Invasion Assays: Glioblastoma and microglial cells were labelled with cell tracker green CMFDA and with cell tracker red CMTPX, respectively, and then embedded in 50 μL of 10 mg/mL basement membrane extract (BME) (Trevigen). The mixture was then placed in a transwell insert (previously coated with 1 μg/mL fibronectin on the bottom side of the 8 μm filter to maintain adhesion of the cells that invaded through the filter) and allowed to polymerize for 30 min at 37° C. Subsequently, serum free medium was added to both wells. To maintain constant cell numbers, cells were plated at a density per invasion chamber of 15×10^4 GL261 cells and 5×10^4 microglia cells in MSFM. Semapimod or its diluent was added at varying concentrations into the BME and in the media above and below the transwell. Invasion chambers were incubated for 48 h and subsequently fixed in 3.7% formaldehyde in phosphate-buffered saline (PBS). The gel in the transwell inserts was carefully removed. Invaded glioblastoma cells were imaged with a Zeiss Axiovision inverted microscope and a 10× objective. All invaded cells were counted.
To determine the effect of microglia on the invasive properties of glioblastoma cells, a novel 3-dimensional microglia-glioblastoma co-culture assay was designed that provides a better approximation of the in vivo setting than a 2-dimensional configuration. […]

[3] = system: SK-NEP1 cells with M2 macrophages; assay: invasion assay of SK-NEP1 co-cultured with polarized primary macrophages; assay type: cell-based, human; settings: co-culture with M2 macrophages, p<0.01
Experimental: FIG. 7. CNI-1493 inhibits tumor invasion in vitro through in the presence of macrophages. When co-cultured with SK-NEP1, macrophages polarized to express the M2 phenotype induced increased tumor cell invasion. This increase in invasion was reversed when co-cultures were exposed to 200 nM CNI-1493. Error bars represent standard deviation.
as §1

In the case of `C/C(=N\NC(=N)N)c1cc(NC(=O)CCCCCCCCC(=O)Nc2cc(/C(C)=N/NC(=N)N)cc(/C(C)=N/NC(=N)N)c2)cc(/C(C)=N/NC(=N)N)c1` [semapimod], the “effect on ES cellular proliferation” value (ES cells (SK-NEP1)) was “unaffected”, the “effect on microglia-stimulated invasion of GL261 glioma cells (concentration dependence)” value [1] was “inhibitory effects” and the “primary tumor size (effect in words)” value (SK-NEP1 human ES cells; intraperitoneal 5 mg/kg/day) was “significantly reduce”. The “incidence of metastatic disease” value (SK-NEP1 human ES cells; intraperitoneal 5 mg/kg/day, p=0.055) was 21%, the “lung metastases by immunohistochemistry” value (SK-NEP1 human ES cells; lung tissue, CD99/CD31) was “micrometastases confined to the vasculature” and the “overall metastatic tumor burden” value (SK-NEP1 human ES cells; treated 7 weeks, versus vehicle, p<0.05) was “significantly decreased”. It also gave a primary tumor size (SK-NEP1 human ES cells; treated 7 weeks, control 7.0±5.2 g, p=0.54, not affected) of 5.7 ± 3.3 g, a pIC50 (microglia) of about 7.22 and a pIC50 [2] of over 7.30. For the same compound, the “effect on M2 macrophage-enhanced ES cellular invasion” value [3] was “strongly decreased”.
